In article PMC12400753 (Respiratory Research, 2025) one finds IC50 data, which are given here for 1 molecule.

For assay [1], the system named is primary human lung fibroblasts. Briefly: LPA-induced COL1A1 expression (immunocytochemistry). In kind it is cell-based. The conditions noted are these: Homo sapiens, Fibroblast; 1 µM LPA 8 h; compound overnight; read-out: IC50 inhibition of COL1A1 expression. Here is the method:
COL1A1 assay: Primary human lung fibroblasts were plated in a 96-well plate and allowed to adhere. […] The next day, cells were treated with 1 µM LPA and incubated for 8 h. After incubation in LPA, cells were immunostained for COL1A1. Cells were fixed in formalin for 10 min, washed 3 x with PBS, incubated in collagen 1A1 antibody (1:250 in blocking buffer, 0.1% Triton X-100 in PBS, 2 h), and washed 3 x with PBS. Secondary antibody solution (1:500) and Hoechst (1:2000) were added for 1 h, washed 3 x in PBS then imaged on a Nikon A1R confocal microscope at 10x magnification except human lung fibroblasts which were imaged at 4x. Collagen area was quantified with ImageJ and normalized to Hoechst per image.

In another assay the target is LPAR1 (Homo sapiens, UniProt Q92633). Briefly: LPAR1 calcium mobilization (reference compounds). The class given is cell-based. Here is the method: B. C. LPAR1 Averaged Data (n=4) 200 […] 125 Nonspecific Binding 2nM 600 Specific Binding 150 1nM 100 75 400 100 50 200 25 50 0 0 -25 0 2 4 6 8 10 120 -10 -9 -8 -7 -6 -5[3H]-PIPE-497 (nM) 0 25 50 75 100 125 log[PIPE-497], M Time Figure S3. PIPE- 497 is a potent L P AR 1 receptor antagonist with properties suitable as an in vivo radioligand. A. L P AR 1 calcium mobilization data showing that PIPE-497 (non-tritiated) is a p ot ent […] B. Saturation binding curves of 3H-PIPE-497 to huma n LPAR1 membranes (n=2, error bars are SEM). C. Binding kinetics of 3H-PIPE-497 in recombinant membranes. […] with 10 μM PIPE- 497 th en add ed to membranes at different time points resulting in a residence time of 16.2 minutes (n=4, error bars are SEM). […] At 10 mg/kg, th e free p las ma exposure of BM S -986278 exceeds its measured IC 5 0 up until 4 h p ost d ose. […] IC50 LPAR1)
LPAR1, sequence (Q92633 whole entry): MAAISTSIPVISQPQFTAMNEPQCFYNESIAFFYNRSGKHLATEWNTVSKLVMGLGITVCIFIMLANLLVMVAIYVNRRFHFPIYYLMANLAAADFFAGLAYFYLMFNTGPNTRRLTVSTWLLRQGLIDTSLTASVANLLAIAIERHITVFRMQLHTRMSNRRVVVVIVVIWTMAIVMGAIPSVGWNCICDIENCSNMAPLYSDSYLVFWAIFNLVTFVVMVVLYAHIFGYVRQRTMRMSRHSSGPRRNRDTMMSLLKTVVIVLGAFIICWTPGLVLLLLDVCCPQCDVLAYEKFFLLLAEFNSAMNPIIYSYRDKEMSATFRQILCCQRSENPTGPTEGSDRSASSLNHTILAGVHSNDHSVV

Take `CCCN(C)C(=O)OCc1c(-c2ccc(O[C@H]3CCC[C@H](C(=O)O)C3)c(C)n2)nnn1C` [BMS-986278, reference compound]: the IC50 – broadly, the point on the concentration scale where inhibition reaches its midpoint – in assay [1] amounted to 0.0306 µM; on LPAR1, 0.0804 µM.
